Experimental findings from ChEMBL document CHEMBL4138296, “Nonacidic Chemotype Possessing N-Acylated Piperidine Moiety as Potent Farnesoid X Receptor (FXR) Antagonists” (ACS Med Chem Lett, 2018) are described below.

The structures appear in SMILES notation. Activity calls are given as the source filed them. The rule behind the calls is not given here.

The target in series [1] is T1, G-protein coupled bile acid receptor 1 (Homo sapiens) (UniProt Q8TDU6).
T1 sequence (whole entry): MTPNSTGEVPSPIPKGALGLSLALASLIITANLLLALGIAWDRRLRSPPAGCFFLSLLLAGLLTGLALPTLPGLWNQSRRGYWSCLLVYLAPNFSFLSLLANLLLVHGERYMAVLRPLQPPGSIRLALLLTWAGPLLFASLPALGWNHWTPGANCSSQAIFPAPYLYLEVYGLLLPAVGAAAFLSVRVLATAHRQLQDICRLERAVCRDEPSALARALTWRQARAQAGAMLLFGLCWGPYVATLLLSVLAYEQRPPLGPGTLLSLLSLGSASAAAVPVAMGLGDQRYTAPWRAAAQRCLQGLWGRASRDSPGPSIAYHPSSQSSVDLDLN
Put plainly: Antagonist activity at TGR5 (unknown origin) assessed as inhibition of lithocholic acid-induced response at 1 uM by luciferase reporter gene assay. The class given is functional.

Series [2] deals with T2, Oxysterols receptor LXR-alpha (Homo sapiens) (UniProt Q13133).
T2 sequence (whole entry): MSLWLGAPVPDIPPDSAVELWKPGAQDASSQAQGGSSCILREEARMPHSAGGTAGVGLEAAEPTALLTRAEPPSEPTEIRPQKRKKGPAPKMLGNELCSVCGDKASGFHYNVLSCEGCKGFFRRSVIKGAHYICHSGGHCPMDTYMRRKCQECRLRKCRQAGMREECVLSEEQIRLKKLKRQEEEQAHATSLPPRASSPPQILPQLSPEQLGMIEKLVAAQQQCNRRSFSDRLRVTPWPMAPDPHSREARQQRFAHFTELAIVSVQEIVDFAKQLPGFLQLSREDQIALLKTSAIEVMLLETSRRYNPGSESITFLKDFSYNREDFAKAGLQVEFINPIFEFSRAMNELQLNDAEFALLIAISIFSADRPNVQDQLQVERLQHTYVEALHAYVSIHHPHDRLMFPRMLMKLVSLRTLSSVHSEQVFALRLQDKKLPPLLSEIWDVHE
Put plainly: Antagonist activity at LXRalpha (unknown origin) assessed as inhibition of TO901317-induced response at 1 uM by luciferase reporter gene assay.

The target in series [3] is T3, Retinoic acid receptor alpha (Homo sapiens) (UniProt P10276).
T3 sequence (whole entry): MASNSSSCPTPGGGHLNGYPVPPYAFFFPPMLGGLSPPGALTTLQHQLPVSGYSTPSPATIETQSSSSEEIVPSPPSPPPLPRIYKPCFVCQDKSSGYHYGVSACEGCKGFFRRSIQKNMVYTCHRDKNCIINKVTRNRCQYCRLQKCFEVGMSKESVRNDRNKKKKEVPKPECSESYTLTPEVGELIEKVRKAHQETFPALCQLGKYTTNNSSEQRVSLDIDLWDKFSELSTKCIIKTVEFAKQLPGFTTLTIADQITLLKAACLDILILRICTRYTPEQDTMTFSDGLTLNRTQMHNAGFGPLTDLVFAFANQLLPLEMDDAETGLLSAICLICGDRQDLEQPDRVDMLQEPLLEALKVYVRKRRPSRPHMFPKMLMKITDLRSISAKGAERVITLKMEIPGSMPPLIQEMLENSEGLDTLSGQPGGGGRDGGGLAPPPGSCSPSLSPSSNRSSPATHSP
Put plainly: Antagonist activity at RARalpha (unknown origin) assessed as inhibition of ATRA-induced response at 1 uM by luciferase reporter gene assay. (In a reporter assay the amount or activity of a reporter protein is the signal.)

The target of series [4] is T4, Peroxisome proliferator-activated receptor alpha (Homo sapiens) (UniProt Q07869).
T4 sequence (whole entry): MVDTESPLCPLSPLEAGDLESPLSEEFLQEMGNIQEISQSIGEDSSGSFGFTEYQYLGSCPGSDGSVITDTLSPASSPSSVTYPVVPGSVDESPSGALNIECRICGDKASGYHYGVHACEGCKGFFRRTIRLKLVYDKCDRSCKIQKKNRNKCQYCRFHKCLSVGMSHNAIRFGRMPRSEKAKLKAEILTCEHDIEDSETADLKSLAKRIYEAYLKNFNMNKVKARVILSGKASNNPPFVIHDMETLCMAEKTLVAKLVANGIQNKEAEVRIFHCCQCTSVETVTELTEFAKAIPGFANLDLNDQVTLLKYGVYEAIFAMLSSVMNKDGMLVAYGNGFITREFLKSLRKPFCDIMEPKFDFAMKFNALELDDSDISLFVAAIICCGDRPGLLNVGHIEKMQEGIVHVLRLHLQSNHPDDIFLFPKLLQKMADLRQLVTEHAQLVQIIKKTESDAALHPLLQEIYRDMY
Put plainly: Antagonist activity at PPARalpha (unknown origin) assessed as inhibition of GW7647-induced response at 1 uM by luciferase reporter gene assay.

For series [5], the target named is T2, Oxysterols receptor LXR-alpha (Homo sapiens). Description: Agonist activity at LXRalpha (unknown origin) at 1 uM by luciferase reporter gene assay.
The target of series [6] is T5, Retinoic acid receptor RXR-alpha (Homo sapiens) (UniProt P19793).
T5 sequence (whole entry): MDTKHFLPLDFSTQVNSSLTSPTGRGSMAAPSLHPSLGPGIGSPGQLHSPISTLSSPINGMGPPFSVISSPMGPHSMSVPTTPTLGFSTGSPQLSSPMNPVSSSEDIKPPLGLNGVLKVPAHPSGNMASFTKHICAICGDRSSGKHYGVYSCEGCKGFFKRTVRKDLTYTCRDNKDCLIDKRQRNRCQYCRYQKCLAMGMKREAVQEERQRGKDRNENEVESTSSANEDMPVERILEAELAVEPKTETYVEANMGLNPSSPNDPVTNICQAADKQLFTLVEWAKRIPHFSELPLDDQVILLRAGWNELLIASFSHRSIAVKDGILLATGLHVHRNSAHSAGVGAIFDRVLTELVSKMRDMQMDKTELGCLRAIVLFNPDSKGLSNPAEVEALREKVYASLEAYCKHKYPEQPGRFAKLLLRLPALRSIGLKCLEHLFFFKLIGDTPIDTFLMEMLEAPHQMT
Description: Agonist activity at human RXRalpha expressed in HEK293T cells at 1 uM by luciferase reporter gene assay. The class given is cell-based.

In series [7] the target is T3, Retinoic acid receptor alpha (Homo sapiens). Put plainly: Agonist activity at RARalpha (unknown origin) at 1 uM by luciferase reporter gene assay.
The test system of the next series is Hep 3B2. Put plainly: Cytotoxicity against human Hep3B cells assessed as reduction in cell viability by MTT assay. The class given is functional, cell-based. In general terms: Formazan colour is commonly taken as a measure of viable cells.
The subject of another series is 3T3-L1. Description: Cytotoxicity against mouse 3T3L1 cells assessed as reduction in cell viability measured up to 10 uM after 6 days by CCK-8 assay. It is filed as cell-based. The note with it: 3t3-l1, 144 h.
In series [8] the target is T5, Retinoic acid receptor RXR-alpha (Homo sapiens). Put plainly: Antagonist activity at human RXRalpha expressed in HEK293T cells assessed as inhibition of 9-cis-retinoic acid-induced response at 1 uM after 24 hrs by luciferase reporter gene assay. It is filed as cell-based.
The target in series [9] is T4, Peroxisome proliferator-activated receptor alpha (Homo sapiens). Put plainly: Agonist activity at PPARalpha (unknown origin) at 1 uM by luciferase reporter gene assay.

In general, IC50 refers to the point on the concentration scale where inhibition reaches its midpoint. For `Cc1ccc2nc([C@H](CC3CCN(C(=O)C(C)C)CC3)N3C(=O)CN(c4ccc(Oc5ccccc5)cc4)C3=O)n(C)c2c1`, the inhibition entry in series [1], in [2], in series [3], in series [4] and in [8] was “inactive” in each case. Further, the result in series [5], in series [6], in series [7] and in series [9] was inactive. The concentration for half-maximal inhibition (IC50) with Hep 3B2 is over 100 µM. Besides, in the series with 3T3-L1, the Activity result is “Non-Toxic”.
